Experiment [1] concerns murine M2-like macrophages. As to the kind of experiment: High-content morphological screening of macrophage re-education (M1 enrichment). Conditions: for M1 enrichment in response to drug treatment: variable concentrations, FIG. 5A. In kind it is cell-based. The protocol:
Cells were maintained in the indicated medium at 37° C. and 5% CO2 and screened regularly for mycoplasma. RAW 264.7 cells were sourced from ATCC and maintained in Dulbecco's Modified Eagles Medium supplemented with 10% heat inactivated fetal calf serum (Atlanta Biologicals), 100 IU penicillin (Invitrogen), and 100 μg mL^−1 streptomycin (Invitrogen), and […] L-glutamine. The MC38 mouse colon adenocarcinoma cell lines were provided by Mark Smyth (QIMR Berghofer Medical Research Institute) with stable transfection of the H2B-Apple reporter to yield a MC38-H2B-mApple cell line employed in intravital microscopy studies. Murine bone marrow-derived macrophages (BMDMs) were isolated and derived by adaptation of published procedures known to those of skill in the art. Briefly, bone marrow was extracted from the surgically resected femur and tibia of naive C57BL/6 mice, dissociated and passed through a 40 μm strainer, and red blood cells lysed by ammonium chloride (StemCell Tech). Resultant bone marrow cells were plated in either 24-well (Corning 3527, for PCR analysis) or optical-bottom 384-well plates (Thermo Fisher 142761, for image analysis) at 1×10^6 cells mL^−1 in Iscove's Modified Dulbecco's Medium supplemented with 10% heat inactivated fetal calf serum, 100 IU penicillin, 100 μg ml^−1 streptomycin (Invitrogen) and 10 ng mL^−1 recombinant murine M-CSF (PeproTech, 315-02); media was replenished every two days. Human macrophages were derived from peripheral blood mononuclear cells isolated using Ficoll-Paque PLUS (GE Healthcare) gradient separation and derived in the presence of 50 ng mL^−1 recombinant human M-CSF (PeproTech, 300-25). Cell proliferation was assessed by PrestoBlue (Fisher) following manufacturer's protocols.
For morphological analysis, media was replenished with M-CSF-free media on day 7 followed by drug dosing (Table 1).
After 48 hours, cells were fixed with formaldehyde (30 min, 37° C.) and stained for actin (5.0 μg mL^−1 DyLight 554 Phalloidin, Cell Signaling Technology), cell membrane (5.0 μg mL^−1 Alexa Fluor 647 wheat germ agglutinin, Thermo Fisher) and nuclei (DAPI, Invitrogen) for 25 min at room temperature. Plates were washed by PBS prior to imaging on a custom Olympus-based automated high-content screening microscope. Four images were acquired per well in a 2×2 grid, imported into CellProfiler (Broad Institute) for pre-processing and segmentation (Table 2).
Computational cell classification was performed in CellProfiler Analyst (Broad Institute) by random forest assignment. Training data (examples provided, Supplementary Figure S1) consisted of approximately 50 healthy cells each representing undifferentiated (M0), M1-like, or M2-like phenotypes. The fast gentle algorithm was trained on the selected cells for […] determination of weights and thresholds for cell shape features. The resulting set of parameters was used to score all other images. The enrichment score for M1 cells was output back into the database and imported into KNIME to generate per-well and per-treatment averages.
Cell morphology was used as an integrated biomarker of cell function, including as an indicator for age and immunosuppressive capacity. The method that was used uses high-content image analysis via computational automated segmentation to extract features of single cells such as cellular radius, axis lengths, compactness, and eccentricity which are associated with the polarization state. […]

For experiment [2], the system named is M2-like (IL-4 treated) murine macrophages. As to the kind of experiment: qPCR transcriptional analysis of M2-like (IL-4 treated) murine macrophages. It is filed as cell-based. Conditions: Mus musculus, Macrophage, M2-like macrophages cultured with R848, 24 hours, given as logIC50. As for the experimental part: For transcriptional analysis, derived murine macrophages were treated with 10 ng mL^−1 recombinant mouse IL-4 (PeproTech 214-14) for 24 hours to induce an M2-like polarization state and subsequently dosed with fresh media supplemented by pharmacologic drugs at the prescribed concentrations. Macrophages treated only with IL-4 (10 ng mL^-1) or LPS (100 ng mL^-1) and IFNg (50 ng mL^-1) served as internal controls for M2-like and M1-like transcription profiles, respectively. […] Data are presented as the gene expression (fold change relative to hprt or β-actin, as indicated) or M1-likeness, calculated as described in Example 2, FIG. 20B. […]
A subset of drugs having a range of M1 enrichment activities were further scrutinized by qPCR analysis of representative M1-like (nos2, il12, and cd80) and M2-like (mrc1, arg1) transcripts. FIG. 20A is a set of two bar graphs depicting gene expression of M1-like and M2-like macrophages, expressed as fold change relative to hprt. […] M1-likeness is determined by summing the changes in expression for each gene resulting from treatment, normalized to the range of expression observed in the training data. […]
(Quantitative PCR measures a nucleic acid by following its amplification.)

Where two headings read alike, the source gives them in different places.

Regarding `CCCCOc1nc(N)c2c(n1)N(Cc1cccc(CN3CCCC3)c1)CC(=O)N2` [GS9620], the “M1 enrichment in response to drug treatment” value (shortened to “M1 enrichment in response”) in experiment [1] is “M1 enrichments which were as pronounced as standard M1 induction by LPS and IFNγ”.

Turning to `COc1ccc(COc2ccc(Cc3cnc(N)nc3N)cc2OC)cc1` [GW2580], the “M1 enrichment in response” value in experiment [1] is recorded as “exception”.

For orientation: EC50 means the midpoint of the concentration-response curve. Low readings indicate a more potent agent, high ones a less potent agent. As for `CCOCc1nc2c(N)nc3ccccc3c2n1CC(C)(C)O` [R848, resiquimod], the IC50 was 398 nM in experiment [2] (read-out: logIC50 of IL12 transcription (converted)); 7.24 nM in experiment [2] (read-out: logIC50 of TLR7 expression (converted)); 14.5 nM in experiment [1] (Mus musculus, Macrophage, given as logIC50). The same compound displayed an EC50 in experiment [1] (Mus musculus, Macrophage, dose response, 48 hours) of 14.1 nM.

As to `CCCN(CCC)C(=O)C1=Cc2ccc(-c3ccc(C(=O)N4CCCC4)cc3)cc2N=C(N)C1` [motolimod], the “M1 enrichment in response” value in experiment [1] is “M1 enrichments which were as pronounced as standard M1 induction by LPS and IFNγ”.

The record behind these values is patent US20250090473A1, “Macrophage Targeted Immunotherapeutics” (The General Hospital Corporation, priority 2017, published 2025).
